{"source": "patent US12221432B2", "about": "“Estrogen receptor antagonist” (CHIA TAI TIANQING PHARMACEUTICAL GROUP CO., LTD., priority 2018, dated 2025)", "key": {"[1]": {"target": "T1, CYP2C19 (Homo sapiens, UniProt P33261)", "T1 construct": "tissue Corning Co., Ltd; host or cells: human liver microsomes", "T1 sequence (P33261 whole entry)": "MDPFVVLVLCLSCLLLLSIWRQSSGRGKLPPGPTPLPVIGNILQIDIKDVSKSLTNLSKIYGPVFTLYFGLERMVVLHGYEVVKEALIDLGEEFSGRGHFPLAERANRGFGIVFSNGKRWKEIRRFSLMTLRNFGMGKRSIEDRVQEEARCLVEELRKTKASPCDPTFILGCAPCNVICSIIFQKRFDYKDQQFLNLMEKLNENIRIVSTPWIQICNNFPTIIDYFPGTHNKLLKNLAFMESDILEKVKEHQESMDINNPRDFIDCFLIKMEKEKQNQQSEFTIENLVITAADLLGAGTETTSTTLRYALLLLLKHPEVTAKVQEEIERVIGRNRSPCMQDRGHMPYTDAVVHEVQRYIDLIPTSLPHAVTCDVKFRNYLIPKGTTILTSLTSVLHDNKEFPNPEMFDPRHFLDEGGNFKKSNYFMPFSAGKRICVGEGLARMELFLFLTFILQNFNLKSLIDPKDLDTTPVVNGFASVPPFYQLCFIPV", "assay": "Cytochrome P450 isoenzyme inhibition, CYP2C19", "assay_type": "in vitro ADME", "details": "human liver microsomes; read-out: CYP enzyme inhibition (IC50) 2C19", "text": "(§1) Experimental objective: To determine the inhibitory effect of the test compound on the activity of human liver microsomal cytochrome P450 isoenzymes (CYP1A2, CYP2C9, CYP2C19, CYP2D6 and CYP3A4; Corning Co., Ltd.). […]"}, "[2]": {"assay": "Metabolic stability in liver microsome (human)", "assay_type": "in vitro ADME, humans", "protocol": "Objective: To determine the metabolic stability of test compounds in the liver microsomes of humans, CD-1 5 mice and SD rats (Corning Co., Ltd., Miaotong Biological Technology Co., Ltd., Miaotong Biological Technology Co., Ltd.).\nProcedures: Firstly, eight 96-well plates were prepared, and named T0, T5, T10, T20, T30, T60, NCF60 and BLANK; except for BLANK (added with buffer at 10 μL/well), the plates were added with the solution of compounds at 10 μL/well. Prepared microsomes were added to the 7 plates (80 μL/well), except for the T0 10 plate. The NCF60 plate was added with the buffer at 10 μL/well, and incubated in a 37° C. water bath, and timing was started:\nPrepared NADPH cofactor working solution was aliquoted into a 96-well shallow-well plate serving as a loading slot. Each plates was added with the solution to at 10 μL/well by a 96-channel pipette and incubated in a 37° C. water bath to start the reaction:\nAt each time point, termination solution (cold acetonitrile containing 100 ng/mL Tolbutamide and 100 ng/mL Labetalol as internal standard) was added at 300 μL/well to stop the reaction, and the mixture was mixed well; the mixture was centrifuged at 4000 rpm for 20 minutes to precipitate the protein; the supernatant was transferred at 100 μL/well to a new 96-well plate containing 300 μL/well of HPLC water with a 96-channel pipette, and the mixture was mixed well. […]"}, "[3]": {"target": "T2, CYP3A4 (Homo sapiens, UniProt P08684)", "T2 construct": "tissue Corning Co., Ltd; host or cells: human liver microsomes", "T2 sequence (P08684 whole entry)": "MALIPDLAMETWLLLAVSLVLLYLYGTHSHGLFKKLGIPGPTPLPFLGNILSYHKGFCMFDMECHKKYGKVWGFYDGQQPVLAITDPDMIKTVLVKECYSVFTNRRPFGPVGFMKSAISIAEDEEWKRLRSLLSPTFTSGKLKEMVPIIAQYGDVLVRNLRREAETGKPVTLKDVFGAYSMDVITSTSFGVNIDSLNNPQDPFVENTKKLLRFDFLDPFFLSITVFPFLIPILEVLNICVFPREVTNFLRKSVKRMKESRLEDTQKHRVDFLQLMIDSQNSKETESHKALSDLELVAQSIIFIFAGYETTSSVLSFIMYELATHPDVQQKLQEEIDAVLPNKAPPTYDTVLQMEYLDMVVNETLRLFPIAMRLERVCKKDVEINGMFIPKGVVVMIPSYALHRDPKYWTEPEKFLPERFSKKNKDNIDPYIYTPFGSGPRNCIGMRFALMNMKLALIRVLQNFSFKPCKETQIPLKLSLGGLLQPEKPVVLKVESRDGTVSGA", "assay": "Cytochrome P450 isoenzyme inhibition, CYP3A4", "assay_type": "in vitro ADME", "details": "human liver microsomes; read-out: CYP enzyme inhibition (IC50) 3A4", "text": "as §1"}, "[4]": {"assay": "Pharmacokinetics study in mice (cassette)", "assay_type": "in vivo", "details": "female, Balb/c, plasma, mouse cassette PK", "text": "Objective: To determine the drug concentration in the plasma of the mice at different times after intravenous and oral administration of the test compounds by LC/MS/MS using female Balb/c mice as the test animals. To investigate the pharmacokinetic performance of the test compounds in mice and to evaluate the pharmacokinetic characteristics.\nTest animals: 4 healthy female Balb/c mice were divided into 2 groups according to the principle of similar weight, 2 in the IV group and 2 in the PO group. The animals were purchased from Shanghai Lingchang Biotechnology Co., Ltd.\nIV group: Appropriate amounts of compounds were weighed respectively, prepared into 2 mg/mL solutions, then mixed to give a 0.5 mg/mL solution, which was stirred and ultrasonicated until a clear state. The vehicle was 15% HP-b-CD.\nPO group: An appropriate amount of the IV group solution was taken and diluted to 0.4 mg/mL with 15% HP-b-CD.\nAdministration: After fasting overnight, the IV group was administered intravenously, and the dose of the test compound was 1 mg/kg; the PO group was administered intragastrically, and the dose of the test compound was 2 mg/kg.\nProcedures: For IV group, 30 μL of blood was collected from the saphenous vein of the female Balb/c mice at 0.0833, 0.25, 0.5, 1, 2, 4, 8, and 24 hours post-dose, and placed in a commercial anticoagulant tube with EDTA-K2 added in advance. For PO group, 30 μL of blood was collected from the saphenous vein of the female Balb/c mice at 0.25, 0.5, 1, 2, 4, 8, 12 and 24 hours post-dose, and placed in a commercial anticoagulant tube with EDTA-K2 added in advance. The blood samples were centrifuged (3,200 g, 4° C., 10 minutes) to give plasma samples, which was transferred to a pre-cooled centrifuge tube, frozen in dry ice, and stored in an ultra-low temperature freezer at −60° C. or lower until the LC-MS/MS analysis. The animals were given free access to food 4 hours after the administration. LC/MS/MS method was used to determine the content of the test compounds in the plasma of mice after intravenous and oral administration. The linear range of the method is 2.00-2000 nM."}}, "note": "Where a name gives a salt, the structure may show the parent alone.", "data": [{"smiles": "CC/C(=C(/c1ccc(OCCNC/C=C/C(=O)N(C)C)nc1)c1[nH]c2ccccc2c1Cl)c1ccccc1", "note": "[Compound 3 monohydrochloride]", "values": [{"measurement": "IC50", "setting": "[1]", "result": 3.9, "unit": "µM"}, {"measurement": "Stability in liver microsomes", "setting": "[2]", "result": 43}, {"measurement": "IC50", "setting": "[3]", "result": 9.8, "unit": "µM"}, {"measurement": "AUC(0-t)", "setting": "[4]; iv, i.v. 1 mg/kg", "result": 2.43, "unit": "µM·h"}, {"measurement": "clearance", "setting": "[4]; iv, i.v. 1 mg/kg", "result": 12.9, "unit": "mL/min/kg"}, {"measurement": "half-life", "setting": "[4]; iv, i.v. 1 mg/kg", "result": 3.37, "unit": "h"}, {"measurement": "Vd", "setting": "[4]; iv, i.v. 1 mg/kg, read-out: Vdss", "result": 3.46, "unit": "L/kg"}, {"measurement": "AUC(0-t)", "setting": "[4]; po, p.o. 2 mg/kg", "result": 1.27, "unit": "µM·h"}, {"measurement": "Cmax", "setting": "[4]; po, p.o. 2 mg/kg", "result": 224, "unit": "nM"}, {"measurement": "Tmax", "setting": "[4]; po, p.o. 2 mg/kg", "result": 0.25, "unit": "h"}, {"measurement": "bioavailability", "setting": "[4]; po, p.o. 2 mg/kg", "result": 26.1, "unit": "%"}, {"measurement": "half-life", "setting": "[4]; po, p.o. 2 mg/kg", "result": 8.12, "unit": "h"}]}]}
